Data reported in PubChem BioAssay (NCI).
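Tested at 5 concentrations; 48 h exposure; 96-well plates; endpoints linearly interpolated, else capped at highest concentration. The concentration for 50% growth inhibition is given as GI50. TGI marks complete inhibition of growth.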 Where a SMILES comes first, the peptide text is derived from it. Bridges are numbered along the chain shown (N, C = ends). The star is where a group is joined. Cbz = O=C(OCc1ccccc1)*

Assays:
Assay in all cases: NCI anticancer screen, dose series, 48 h
A498 renal = tested on: A498 renal
MALME-3M melanoma = tested on: MALME-3M melanoma
SK-OV-3 ovarian = tested on: SK-OV-3 ovarian
MOLT-4 leukemia = tested on: MOLT-4 leukemia
ACHN renal = tested on: ACHN renal
NCI-H460 lung = tested on: NCI-H460 lung
UACC-257 melanoma = tested on: UACC-257 melanoma
PC-3 prostate = tested on: PC-3 prostate
SK-MEL-5 melanoma = tested on: SK-MEL-5 melanoma
T-47D breast = tested on: T-47D breast
CAKI-1 renal = tested on: CAKI-1 renal
SF-295 CNS = tested on: SF-295 CNS
NCI/ADR-RES ovarian = tested on: NCI/ADR-RES ovarian

Row | Structure (SMILES) | TGI (A498 renal) | TGI (MALME-3M melanoma) | TGI (SK-OV-3 ovarian) | TGI (MOLT-4 leukemia) | TGI (ACHN renal) | TGI (NCI-H460 lung) | TGI (UACC-257 melanoma) | TGI (PC-3 prostate) | TGI (SK-MEL-5 melanoma) | TGI (T-47D breast) | TGI (CAKI-1 renal) | TGI (SF-295 CNS) | TGI (NCI/ADR-RES ovarian) | GI50 (NCI-H460 lung) | GI50 (PC-3 prostate)
1 | C=C(Br)CNCC(=C)Br | > 100 µM | > 100 µM | > 100 µM | > 100 µM | > 100 µM | > 100 µM | 98.6 µM | > 100 µM | > 100 µM | > 100 µM | > 100 µM | > 100 µM | > 100 µM |  | 
2 | Cc1c(C#N)c2nnn(-c3ccccc3)c(=O)n2c1-c1ccccc1 | > 25.1 µM | > 100 µM | > 29.5 µM | 30.5 µM | > 100 µM | > 76.6 µM | > 100 µM | > 100 µM | 16.5 µM | 87.4 µM | > 100 µM | 8.53 µM | 14.6 µM |  | 
3 | COC(=O)/C=C/c1cc(OC)c2oc(-c3ccc(OC)c(OC)c3)c(C(=O)OC)c2c1 | > 100 µM | > 100 µM | > 100 µM | > 100 µM | > 100 µM | > 100 µM | > 100 µM | > 100 µM | > 100 µM | > 100 µM | > 100 µM | > 100 µM | > 100 µM |  | 
4 | CC(=O)c1ccc(N2CCN(C3=CC(=O)c4c(O)ccc(O)c4C3=O)CC2)cc1 | > 100 µM | > 100 µM |  | > 100 µM |  | > 100 µM | > 100 µM | > 100 µM |  | > 100 µM | > 100 µM | > 100 µM | > 100 µM |  | 
5 | Cc1cc(O)ccc1C1(c2ccc(F)cc2)OC(=O)c2ccccc21 (stereo not given) | 32.9 µM | 26.8 µM | 14.2 µM | > 100 µM | 12.6 µM | 29 µM | 26.7 µM | 5.28 µM | 24.3 µM | 0.974 µM | 15.3 µM | 14.2 µM | 2.25 µM |  | 
6 | c1csc(-c2csc(-c3ccsc3)c2)c1 | > 100 µM | > 100 µM | > 100 µM | > 100 µM | > 100 µM | > 100 µM | > 100 µM | > 100 µM | > 100 µM | > 100 µM | > 100 µM | > 100 µM | > 100 µM |  | 
7 | COP(=O)(OC)C(NC=O)P(=O)(OC)OC | > 100 µM | > 100 µM | > 100 µM | > 100 µM | > 100 µM | > 100 µM |  | > 100 µM | > 100 µM | > 100 µM | > 100 µM | > 100 µM | > 100 µM |  | 
8 | Cc1nn(C)c2nc3ccc(Cl)cc3c(-c3ccccc3)c12 | > 100 µM | > 100 µM | > 100 µM | > 100 µM | > 100 µM | > 100 µM | > 100 µM | > 100 µM |  | > 100 µM | > 100 µM | > 100 µM | > 100 µM |  | 
9 | N#CC12C(=O)N3C(=NC(c4ccccc4)NC3c3ccccc3)C1(C#N)C(c1ccccc1)NC1=C2CCCC1 (stereo not given) | > 100 µM | > 100 µM | > 100 µM | > 100 µM | > 100 µM | > 100 µM | > 100 µM | > 100 µM | > 100 µM | > 100 µM | > 100 µM | > 100 µM | > 100 µM |  | 
10 | Cc1cc(C)c2c(=N)c3ccccc3n(CCCCCCO)c2n1 | 26.9 µM | 5.95 µM | 18.5 µM | 17.6 µM | 6.81 µM | 3.62 µM | 15.8 µM | 11.9 µM | 8.16 µM | 12.1 µM | 8.31 µM | 11.9 µM | 8.38 µM |  | 
11 | N#Cc1c(Nc2nc3ccccc3s2)c2ccccc2n2c1nc1ccccc12 | > 100 µM | > 100 µM |  | > 100 µM | > 100 µM | > 100 µM | > 100 µM | > 100 µM | > 100 µM | > 100 µM | > 100 µM | > 100 µM | > 100 µM |  | 
12 | COC(=O)C1CCCCNC(=O)CCC(NC(=O)OCc2ccccc2)C(=O)N1 (stereo not drawn) (Cbz-Glu-Lys-OMe; lactam 1-2; configuration not given here) | > 100 µM | > 100 µM | > 100 µM | > 100 µM | > 100 µM | > 100 µM | > 100 µM | > 100 µM | > 100 µM | > 100 µM | > 100 µM | > 100 µM | > 100 µM |  | 
13 | Cn1c2c(c3ccccc31)CCN1C(=O)C3SC21C1C(=O)N(c2ccccc2)C(=O)C31 (stereo not given) | > 89.7 µM | > 100 µM | > 100 µM | > 100 µM | > 100 µM | > 100 µM | > 69.2 µM | > 100 µM | > 73.4 µM | > 100 µM | > 100 µM | > 100 µM | > 100 µM | 90.6 µM | 23.4 µM
14 | CCn1c2ccc(O)c(C(=O)OC)c2c2cc3ccccc3c(O)c21 | 39.5 µM | 20.7 µM | 43.8 µM | 73.5 µM | 54.1 µM | 54.9 µM | > 100 µM | 78.8 µM | 38.5 µM | 34.1 µM | 33.6 µM | 64.5 µM | 57.2 µM |  | 
15 | Cc1ccc(S(=O)(=O)c2ccc([N+](=O)[O-])o2)cc1 | 33.9 µM | 2.64 µM | 35.2 µM | > 100 µM | 3.03 µM | 33.4 µM | 3.61 µM | 3.28 µM | 23 µM | 6.24 µM | 1.54 µM | 43.9 µM | 5.36 µM |  | 
16 | O=S(=O)(O)c1cc(O)c2c(O)c(N=Nc3cccc4ccccc34)c(S(=O)(=O)O)cc2c1 | > 100 µM | > 100 µM | > 100 µM | > 100 µM | > 100 µM |  | > 100 µM | > 100 µM | > 100 µM | > 100 µM | > 100 µM | > 100 µM | > 100 µM |  | 
17 | COc1ccc2c(c1OC)C(=O)O[C@@H]2[C@H]1c2cc3c(cc2CCN1C)OCO3 | > 100 µM |  | > 100 µM | > 100 µM | > 100 µM | > 100 µM | > 100 µM | > 100 µM | > 100 µM | > 100 µM | > 100 µM | > 100 µM | > 100 µM |  | 
